Here are results for 37 compounds from US11542492B2 (Celgene CAR LLC, priority 2009, dated 2023).

One test addresses T1, recombinant human cIAP-1 (Homo sapiens, UniProt Q13490).
T1 construct: purchased R&D Systems 818-IA
As to the kind of experiment: Fluorescence polarization competition binding assay, cIAP-1. Particulars: c-IAP-1, 3 h. The procedure:
Homogeneous, Fluorescence Polarization, Competition Binding Assay Protocol for Affinity Assessment of Compound Binding to XIAP, cIAP-1 and ML-IAPβ BIR3 Domains
1× stocks of recombinant human XIAP; BIR3 domain (895-XB), recombinant human cIAP-1 (818-IA) or recombinant human ML-IAPβ (818-IA) from R&D Systems and Fluorescence Polarization (FP) assay tracer (Atto-647 tagged IAP inhibitor probe compound) were prepared in assay buffer consisting of 25 mM Tris-HCL, pH 7.5 (Sigma), 10 mM […] (Sigma), 1 mM DTT (Fluka) and 0.005% TritonX-100 (Pierce). While IAP protein and tracer equilibrated at ambient temp in the dark (30-60 min), 100× stocks of test compound were prepared in 50% DMSO:H2O, serially diluted and spotted (0.5 µL/well) in duplicate wells of a 384-well, flat bottom, polypropylene, black assay plate (Greiner #781209). […] Competition binding between test compounds and assay tracer was initiated by the addition of 50 µL/well of pre-equilibrated IAP protein and assay tracer. Displacement of the assay tracer was measured in a Synergy plate reader from BioTek (Winooski, Vt.) at λex620/λem680 through a 660 nm half-sized dicroich mirror and S/P polarizing filters every 30 min for 3 hr. (See Huang, X., Journal of Biomolecular Screening 8, 2003). The resulting compound dose response data were fit to a one-site binding Ki model in GraphPad Prism from GraphPad Software (San Diego, Calif.).
A general note: In fluorescence polarisation assays a small probe gives low polarisation when free and higher when bound to something large.

A further test addresses T2, p120γ (PI3Kγ) (Homo sapiens, UniProt P48736).
T2 construct: purchased BPS Bioscience 40625
As to the kind of experiment: HTRF assay, p120γ. The test is classed as biochemical. The text has this: The protocol below describes an end-point, competition-binding HTRF assay used to measure inherent potency of test compounds against active p110α/p85α, p110β/p85α, p120γ enzymes. The mechanics of the assay platform are best described by the vendor (Millipore, Billerica, Mass.) on their website at the following URL: http://www.millipore.com/coa/tech1/74jt4z.
Briefly, Stop solution (Stop A, #33-007 and Stop B, #33-009; 3:1 ratio) and Detection Mix (DMC, #33-015 with DMA, #33-011 and DMB, #33-013; 18:1:1 ratio) were prepared as recommended by the manufacturer ˜2 hrs prior to use. Additionally, 1× reaction buffer (4× buffer stock #33-003), a 1.4× stock of enzyme from BPS Bioscience (San Diego, Ca) or Millipore (Billerica, Mass.) with di-C8-PIP2 lipid substrate (#33-005), and a 4×ATP solution (#A7699) Sigma/Aldrich (St. Louis, Mo.) were prepared in 1×reaction buffer. 15 μL of enzyme and lipid substrate mix were pre-incubated in a Corning (#3573) 384-well, black, non-treated microtiter plate (Corning, N.Y.) for 30 min at 25° C. with a 0.5 μL volume of 50% DMSO and serially diluted compounds prepared in 50%-75% DMSO. Lipid kinase reactions were started with the addition of 5 μL of ATP solution, mixed for 15 sec on a rotary plate shaker and incubated for 15-30 minutes at 25° C. Next, reactions were stopped with a 5 μL addition of Stop solution followed by a 5 μL volume of Detection Mix. Stopped reactions were equilibrated for 1 and 18 hrs at room temperature and then read in a Synergy4 plate reader from BioTek (Winooski, Vt.) at λex330-80/λem620-35 and λem665-7.5. At the conclusion of each assay, the HTRF ratio from fluorescence emission values for each well was calculated and % Inhibition determined from averaged controls wells. % Inhibition values for each compound re then plotted against inhibitor concentration to estimate IC50 from log [Inhibitor] vs Response, Variable Slope model in GraphPad Prism from GraphPad Software (San Diego, Calif.).
Reagents Used in Optimized Protocol: • [p120γ]=1-4 nM, [ATP]=50 μM, [di-C8-PIP2]=10 μM • (40625; BPS Bioscience)
(In general: TR-FRET usually uses a lanthanide donor and a delayed reading to cut background.)

Where two headings read alike, the source gives them in different places. Some results are limits rather than exact numbers.

T1 sequence (Q13490 whole entry): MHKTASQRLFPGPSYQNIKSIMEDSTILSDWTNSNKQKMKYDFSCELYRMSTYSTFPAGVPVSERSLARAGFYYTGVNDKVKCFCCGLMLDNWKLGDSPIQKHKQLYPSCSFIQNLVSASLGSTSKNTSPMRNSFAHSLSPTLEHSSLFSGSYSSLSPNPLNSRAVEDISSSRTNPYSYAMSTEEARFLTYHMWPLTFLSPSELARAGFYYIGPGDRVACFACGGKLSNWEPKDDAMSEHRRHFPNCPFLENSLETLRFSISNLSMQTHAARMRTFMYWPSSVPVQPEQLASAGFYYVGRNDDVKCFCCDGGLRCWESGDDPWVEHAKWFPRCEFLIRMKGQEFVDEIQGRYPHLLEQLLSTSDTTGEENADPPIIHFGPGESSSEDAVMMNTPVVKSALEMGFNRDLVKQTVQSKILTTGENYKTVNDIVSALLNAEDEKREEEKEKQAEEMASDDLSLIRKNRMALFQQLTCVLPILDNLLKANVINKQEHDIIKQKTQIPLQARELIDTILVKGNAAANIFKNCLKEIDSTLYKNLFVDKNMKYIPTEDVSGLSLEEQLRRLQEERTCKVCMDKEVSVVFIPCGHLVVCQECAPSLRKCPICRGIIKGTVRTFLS
T2 sequence (P48736 whole entry): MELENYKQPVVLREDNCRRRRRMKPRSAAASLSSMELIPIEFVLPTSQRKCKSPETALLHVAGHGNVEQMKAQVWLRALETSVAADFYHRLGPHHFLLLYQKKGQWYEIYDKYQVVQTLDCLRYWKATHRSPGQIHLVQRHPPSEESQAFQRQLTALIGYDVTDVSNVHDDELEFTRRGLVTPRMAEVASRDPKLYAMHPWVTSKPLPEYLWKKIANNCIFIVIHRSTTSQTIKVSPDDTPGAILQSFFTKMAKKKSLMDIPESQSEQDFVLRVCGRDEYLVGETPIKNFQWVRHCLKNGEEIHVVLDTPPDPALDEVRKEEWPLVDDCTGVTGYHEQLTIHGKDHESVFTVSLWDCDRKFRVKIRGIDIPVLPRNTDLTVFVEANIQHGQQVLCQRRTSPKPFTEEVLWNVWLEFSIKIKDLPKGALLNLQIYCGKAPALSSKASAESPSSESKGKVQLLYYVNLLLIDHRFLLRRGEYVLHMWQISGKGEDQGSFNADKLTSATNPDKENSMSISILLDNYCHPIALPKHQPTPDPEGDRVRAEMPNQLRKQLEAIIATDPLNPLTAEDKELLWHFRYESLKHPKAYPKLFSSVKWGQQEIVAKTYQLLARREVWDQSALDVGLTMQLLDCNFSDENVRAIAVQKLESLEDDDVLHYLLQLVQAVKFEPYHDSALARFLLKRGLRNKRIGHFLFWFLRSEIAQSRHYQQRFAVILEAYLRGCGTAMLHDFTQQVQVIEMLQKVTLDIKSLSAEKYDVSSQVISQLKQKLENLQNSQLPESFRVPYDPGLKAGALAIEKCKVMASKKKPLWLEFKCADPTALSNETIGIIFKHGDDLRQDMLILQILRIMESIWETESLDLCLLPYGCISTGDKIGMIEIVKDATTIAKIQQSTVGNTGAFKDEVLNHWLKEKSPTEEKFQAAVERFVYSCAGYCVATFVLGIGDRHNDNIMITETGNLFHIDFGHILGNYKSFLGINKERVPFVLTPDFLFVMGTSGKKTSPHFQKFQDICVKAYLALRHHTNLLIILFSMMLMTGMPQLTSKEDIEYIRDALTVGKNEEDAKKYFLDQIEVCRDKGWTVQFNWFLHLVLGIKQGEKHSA

As usually defined, the Ki is the equilibrium dissociation constant of an inhibitor or competing ligand from its target. Consider `CN[C@@H](C)C(=O)N[C@H]1CCCC[C@H]2CC[C@@H](C(=O)NCc3cccc(NC(=O)C=C(C)C)c3)N2C1=O` [VII-12], for which the Ki on recombinant human cIAP-1 was in the range of 10 to 100 nM.

For the compound `CN[C@@H](C)C(=O)N[C@H]1CCCC[C@H]2CC[C@@H](C(=O)NCc3cccc(C(=O)C=C(C)C)c3)N2C1=O` [VII-19], the Ki on recombinant human cIAP-1 was in the range of 10 to 100 nM. Same read-out and setting: to `CN[C@@H](C)C(=O)N[C@H]1CCCC[C@H]2CC[C@@H](C(=O)NCc3cccc(NC(=O)[C@@H]4CCC(=O)N4)c3)N2C1=O` [VII-38] belongs 1000 to 10000 nM.

As for `CN[C@@H](C)C(=O)N[C@H]1CCCC[C@H]2CC[C@@H](C(=O)NCc3cccc(NC(=O)/C=C/CN(C)C)c3)N2C1=O` [VII-10], on recombinant human cIAP-1, the Ki lay within 100 to 1000 nM. On the same count and under the same terms, the result for `CN[C@@H](C)C(=O)N[C@H]1CCCC[C@H]2CC[C@@H](C(=O)NCc3cccc(NC(=O)C45CC[C@@](C)(C(=O)O4)C5(C)C)c3)N2C1=O` [VII-24] reads 100 to 1000 nM.

In the case of `CN[C@@H](C)C(=O)N[C@H]1CCCC[C@H]2CC[C@@H](C(=O)NCc3cccc(C(=O)NC[C@H]4CCC(=O)O4)c3)N2C1=O` [VII-41], on recombinant human cIAP-1, the Ki lay within 100 to 1000 nM.

Consider `CN[C@@H](C)C(=O)N[C@H]1CCCC[C@H]2CC[C@@H](C(=O)NCc3cccc(NC(=O)[C@@H]4CC(=O)N4)c3)N2C1=O` [VII-4], for which, on recombinant human cIAP-1, the Ki fell in the range of 100 to 1000 nM.

As to `CN[C@@H](C)C(=O)N[C@H]1CCCC[C@H]2CC[C@@H](C(=O)NCc3cccc(NC(=O)C4CCOC4=O)c3)N2C1=O` (stereo partly shown) [VII-44], the Ki on recombinant human cIAP-1 lay in the range of 100 to 1000 nM. Same read-out and setting: the result for `CN[C@@H](C)C(=O)N[C@H]1CCCC[C@H]2CC[C@@H](C(=O)NCc3cccc(CNC(=O)[C@@H]4CCC(=O)O4)c3)N2C1=O` [VII-32] reads 100 to 1000 nM; that for `CN[C@@H](C)C(=O)N[C@H]1CCCC[C@H]2CC[C@@H](C(=O)NCc3cccc(C(=O)N4CCC5C[C@H]4C(=O)O5)c3)N2C1=O` [VII-47], 1000 to 10000 nM; that for `CN[C@@H](C)C(=O)N[C@H]1CCCC[C@H]2CC[C@@H](C(=O)NCc3cccc(C(=O)OC4CCOC4=O)c3)N2C1=O` (stereo partly shown) [VII-15], 100 to 1000 nM. Same read-out and setting: the result for `CN[C@@H](C)C(=O)N[C@H]1CCCC[C@H]2CC[C@@H](C(=O)NCc3cccc(NC(=O)CC(=O)C(F)(F)F)c3)N2C1=O` [VII-9] reads 100 to 1000 nM; that for `CN[C@@H](C)C(=O)N[C@H]1CCCC[C@H]2CC[C@@H](C(=O)NCc3cccc(NC(=O)[C@@H]4CCC(=O)O4)c3)N2C1=O` [VII-3], 100 to 1000 nM; that for `CN[C@@H](C)C(=O)N[C@H]1CCCC[C@H]2CC[C@@H](C(=O)NCc3cccc(CNC(=O)[C@H]4CCC(=O)O4)c3)N2C1=O` [VII-33], 1000 to 10000 nM. As to `CN[C@@H](C)C(=O)N[C@H]1CCCC[C@H]2CC[C@@H](C(=O)NCc3cccc(NC(=O)C4CCCC(=O)O4)c3)N2C1=O` (stereo partly shown) [VII-46], the Ki at recombinant human cIAP-1 is 100 to 1000 nM. Still for that read-out and setting: the result for `C=CC(=O)NCc1cccc(CNC(=O)[C@@H]2CC[C@@H]3CCCC[C@H](NC(=O)[C@H](C)NC)C(=O)N32)c1` [VII-18] reads 100 to 1000 nM; that for `CN[C@@H](C)C(=O)N[C@H]1CCCC[C@H]2CC[C@@H](C(=O)NCc3cccc(NC(=O)C4COC(=O)C4)c3)N2C1=O` (stereo partly shown) [VII-45], 1000 to 10000 nM. As a reminder, the IC50 is the midpoint of a concentration-inhibition curve. As to `Cc1ccc([N+](=O)[O-])cc1S(=O)(=O)N(C)/N=C/c1cnc2ccc(Br)cn12` [PIK75, reference compound], on p120γ (PI3Kγ) (p120γ, read-out: Reference Inhibitor IC50), the IC50 is 55 nM.

As to `CN[C@@H](C)C(=O)N[C@H]1CCCC[C@H]2CC[C@@H](C(=O)NCc3cccc(NC(=O)C45CC[C@](C)(C(=O)O4)C5(C)C)c3)N2C1=O` [VII-26], the Ki on recombinant human cIAP-1 was in the range of 100 to 1000 nM.

With `C=CC(=O)N(C)Cc1cc2nc(-c3cccc(O)c3)nc(N3CCOCC3)c2s1` [XXII-5, N-((2-(3-hydroxyphenyl)-4-morpholinothieno[3,2-d]pyrimidin-6-yl)methyl)-N-methylacrylamide], the IC50 on p120γ (PI3Kγ) (PI3Kγ, read-out: PI3Kγ HTRF IC50 Inhibition Designation) was in the range of 100 to 1000 nM. With `CN[C@@H](C)C(=O)N[C@H]1CCCC[C@H]2CC[C@@H](C(=O)NCc3cccc(NC(=O)C4(C(C)=O)CC4)c3)N2C1=O` [VII-34], the Ki at recombinant human cIAP-1 lay within 100 to 1000 nM.

Turning to `CN[C@@H](C)C(=O)N[C@H]1CCCC[C@H]2CC[C@@H](C(=O)NCc3cccc(C(=O)N4C[C@@H]5C[C@H]4C(=O)O5)c3)N2C1=O` [VII-20, (3S,6S,10aS)-6-((S)-2-(methylamino)propanamido)-5-oxo-N-(3-((1S,4S)-3-oxo-2-oxa-5-azabicyclo[2.2.1]heptane-5-carbonyl)benzyl)decahydropyrrolo[1,2-a]azocine-3-carboxamide], the Ki on recombinant human cIAP-1 is 100 to 1000 nM.

For the compound `CN[C@@H](C)C(=O)N[C@H]1CCCC[C@H]2CC[C@@H](C(=O)NCc3cccc(NC(=O)CC(C)=O)c3)N2C1=O` [VII-6], the Ki at recombinant human cIAP-1 was 10 to 100 nM. On the same count and under the same terms, to `CN[C@@H](C)C(=O)N[C@H]1CCCC[C@H]2CC[C@@H](C(=O)NCc3cccc(Nc4c(OC(C)C)c(=O)c4=O)c3)N2C1=O` [VII-5] belongs 100 to 1000 nM.

On to `CC(=O)C(C(C)=O)c1cccc(CNC(=O)[C@@H]2CC[C@@H]3CCCC[C@H](NC(=O)[C@H](C)N(C)C(=O)OC(C)(C)C)C(=O)N32)c1` [VII-7, tert-butyl(S)-1-((3S,6S,10aS)-3-(3-(2,4-dioxopentan-3-yl)benzylcarbamoyl)-5-oxodecahydropyrrolo[1,2-a]azocin-6-ylamino)-1-oxopropan-2-yl(methyl)carbamate], for which the Ki on recombinant human cIAP-1 was over 10000 nM. With `CN[C@@H](C)C(=O)N[C@H]1CCCC[C@H]2CC[C@@H](C(=O)NCc3cccc(C(=O)NC[C@@H]4CCC(=O)O4)c3)N2C1=O` [VII-42], the Ki on recombinant human cIAP-1 fell in the range of 100 to 1000 nM.

Turning to `CN[C@@H](C)C(=O)N[C@H]1CCCC[C@H]2CC[C@@H](C(=O)NCc3cccc(C(C(C)=O)C(C)=O)c3)N2C1=O` [VII-8], the Ki on recombinant human cIAP-1 is 100 to 1000 nM.

`CN[C@@H](C)C(=O)N[C@H]1CCCC[C@H]2CC[C@@H](C(=O)NCc3cccc(NC(=O)[C@H]4CCC(=O)N4)c3)N2C1=O` [VII-39]: on recombinant human cIAP-1, the Ki is 100 to 1000 nM. As for `CN[C@@H](C)C(=O)N[C@H]1CCCC[C@H]2CC[C@@H](C(=O)NCc3cccc(C(=O)N[C@@H]4COC(=O)C4)c3)N2C1=O` [VII-22], at recombinant human cIAP-1, the Ki lay within 100 to 1000 nM.

Take `CN[C@@H](C)C(=O)N[C@H]1CCCC[C@H]2CC[C@@H](C(=O)NCc3cccc(C(=O)OC4C(=O)OCC4(C)C)c3)N2C1=O` (stereo partly shown) [VII-14]: the Ki at recombinant human cIAP-1 lay in the range of 1000 to 10000 nM.

Turning to `CN[C@@H](C)C(=O)N[C@H]1CCCC[C@H]2CC[C@@H](C(=O)NCc3cccc(C(=O)N[C@@H]4CCOC4=O)c3)N2C1=O` [VII-27], the Ki on recombinant human cIAP-1 fell in the range of 100 to 1000 nM. Same read-out and setting: the result for `CN[C@@H](C)C(=O)N[C@H]1CCCC[C@H]2CC[C@@H](C(=O)NCc3cccc(C(=O)N[C@H]4CCOC4=O)c3)N2C1=O` [VII-13, (3S,6S,10aS)-6-((S)-2-(methylamino)propanamido)-5-oxo-N-(3-((S)-2-oxotetrahydrofuran-3-ylcarbamoyl)benzyl)decahydropyrrolo[1,2-a]azocine-3-carboxamide] reads 100 to 1000 nM. Same read-out and setting: to `CN[C@@H](C)C(=O)N[C@H]1CCCC[C@H]2CC[C@@H](C(=O)NCc3cccc(C(=O)N4CCC5CC4C(=O)O5)c3)N2C1=O` (stereo partly shown) [VII-48] belongs 100 to 1000 nM; to `CN[C@@H](C)C(=O)N[C@H]1CCCC[C@H]2CC[C@@H](C(=O)NCc3cccc(C(=O)N4CCOC(=O)C4)c3)N2C1=O` [VII-31], 100 to 1000 nM. For the compound `C=C(C)C(=O)Nc1cccc(CNC(=O)[C@@H]2CC[C@@H]3CCCC[C@H](NC(=O)[C@H](C)NC)C(=O)N32)c1` [VII-11], on recombinant human cIAP-1, the Ki fell in the range of 100 to 1000 nM. For `CN[C@@H](C)C(=O)N[C@H]1CCCC[C@H]2CC[C@@H](C(=O)NCc3cccc(C(=O)N4C[C@H]5C[C@@H]4C(=O)O5)c3)N2C1=O` [VII-25], the Ki at recombinant human cIAP-1 was 100 to 1000 nM. On the same count and under the same terms, the result for `CN[C@@H](C)C(=O)N[C@H]1CCCC[C@H]2CC[C@@H](C(=O)NCc3cccc(OC4CCOC4=O)c3)N2C1=O` (stereo partly shown) [VII-17] reads 100 to 1000 nM.
